According to patent US10711314B2, “Methods for diagnosing IDH-mutant cell proliferation disorders” (Agios Pharmaceuticals, Inc., priority 2009, dated 2020):
Values joined by “and” are separate entries in the source; they are usually repeats but may differ in a detail not shown here. Equal entries are not always repeated. Where two headings read alike, the source gives them in different places. One block for each compound: values may come before it.

What was measured:
[1] = test system: glioblastoma multiforme; details: glioblastoma multiforme patients; cited from earlier work
[2] = IDH1/2 activity assay, reverse reaction (α-KG and NADPH); type: biochemical, human; details: reductive (→NADP^+)
Procedure: (§1) All reactions were performed in standard enzyme reaction buffer (150 mM NaCl, 20 mM Tris-Cl, pH 7.5, 10 mM MgCl2 and 0.03% (w/v) bovine serum albumin). For determination of kinetic parameters, sufficient enzyme was added to give a linear reaction for 1 to 5 seconds. Enzymatic binding constants were determined using curve fitting algorithms to standard kinetic models with the Sigmaplot software package (Systat Software, San Jose, Calif.). For determination of kcat, enzyme was incubated with 5×Km of substrate and cofactor; consumption of NADPH or NADP was determined by a change in the OD340 over time. In both cases an extinction coefficient of 6200 M^−1 cm^−1 was used for NADPH.

[3] = IDH1/2 activity assay, forward reaction (isocitrate and NADP+); type: biochemical, human; details: Oxidative (→NADPH), recombinant IDH1; for Ki: inhibition by aKG; for Km: read-out: KM,isocitrate
Procedure: as §1

[4] = molecular target: T1, IDH1 wt (Homo sapiens, UniProt O75874); assay: IDH1 wt assay (wild type vs mutant selectivity); type: biochemical
T1 construct: The resultant fragments for IDH1 (full length) and IDH2 (residues 40-452) were cloned into vector pET41a; made in house; host or cells: E. coli
T1 sequence (O75874 whole entry, the tested form may be a part): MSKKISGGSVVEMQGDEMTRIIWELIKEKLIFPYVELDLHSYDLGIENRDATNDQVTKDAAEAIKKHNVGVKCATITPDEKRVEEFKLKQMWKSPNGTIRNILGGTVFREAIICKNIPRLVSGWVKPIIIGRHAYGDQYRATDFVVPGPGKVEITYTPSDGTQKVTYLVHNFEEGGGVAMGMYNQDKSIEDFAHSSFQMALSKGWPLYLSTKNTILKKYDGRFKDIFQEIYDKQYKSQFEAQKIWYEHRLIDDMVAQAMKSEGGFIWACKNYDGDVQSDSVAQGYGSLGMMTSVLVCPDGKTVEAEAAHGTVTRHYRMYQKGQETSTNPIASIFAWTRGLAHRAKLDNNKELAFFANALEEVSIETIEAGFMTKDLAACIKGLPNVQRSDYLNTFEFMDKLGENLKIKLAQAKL
Text: (§2) The selectivity between wild type vs mutant could be >20-fold.

[5] = Enzyme kinetics of IDH1 wild-type and mutants in oxidative decarboxylation of isocitrate to α-KG; type: biochemical, human
Procedure: (§3) In these reactions, the substrate was varied while the cofactor was held constant at 500 uM. All reactions were performed in 150 mM NaCl, 20 mM Tris-Cl, pH 7.5, 10% glycerol, and 0.03% (w/v) BSA). Reaction progress was followed by spectroscopy at 340 nM monitoring the change in oxidation state of the cofactor. Sufficient enzyme was added to give a linear change in absorbance for 10 minutes.
All data was fit to the Hill equation by least-squares regression analysis.

[6] = Enzyme kinetics of IDH1 wild-type and mutants in reduction of α-KG with NADPH; type: biochemical, human; details: for consumption of NADPH in reduction of α-KG: 40 ug/ml of enzyme
Procedure: as §3, with “reactions,” for “reactions, the”, “50” for “150”, “potassium phosphate buffer,” for “NaCl, 20 mM Tris-Cl,”, “6.5,” for “7.5,”, “glycerol,” for “glycerol, and”, “BSA, 5 mM MgCl2, and 40 mM sodium hydrocarbonate.” for “BSA).”

[7] = Reduction of alpha-ketoglutarate with NADH by IDH1 wild-type and mutants; type: biochemical, human
Procedure: In order to evaluate the ability of the mutant enzymes to utilize NADH in the reduction of alpha-ketoglutarate, the following experiment was conducted.

[8] = molecular target: T2, IDH1 wild-type (Homo sapiens, UniProt O75874); assay: Inhibition of oxidative decarboxylation of isocitrate to α-KG by IDH1 wild-type; type: biochemical; details: for effect on the oxidative decarboxylation of isocitrate by wild-type ICDH1: added in a titration series
T2 construct: The resultant fragments for IDH1 (full length) and IDH2 (residues 40-452) were cloned into vector pET41a; made in house; host or cells: E. coli Rosetta
T2 sequence (O75874 whole entry, the tested form may be a part): as above
Procedure: as §3
(§4) A well-known regulatory mechanism for control of metabolic enzymes is feedback inhibition, in which the product of the reaction acts as a negative regulator for the generating enzyme.
(§5) Final concentrations: Tris 7.5 20 mM, NaCl 150 mM, MnCl2 2 mM, Glycerol 10%, BSA 0.03%, NADP 0.5 mM, IDH1 wt 1.5 ug/ml, IDH1R132S 30 ug/ml, IDH1R132H 60 ug/ml, DL-isocitrate (5-650 uM).
A reaction containing the wild-type ICDH1, NADP, and α-KG was assembled (under conditions as described above) to which was added in a titration series either (R)-2-hydroxyglutarate or the reaction product of the ICDH1 […] mutant reduction of α-KG to 2-hydroxyglutarate.

[9] = molecular target: T3, IDH1 R132S (Homo sapiens, UniProt O75874, R132S); assay: Inhibition of oxidative decarboxylation of isocitrate to α-KG by IDH1 R132S; type: biochemical
T3 construct: The resultant fragments for IDH1 (full length) and IDH2 (residues 40-452) were cloned into vector pET41a; made in house; host or cells: E. coli Rosetta
T3 sequence (O75874 whole entry R132S, the tested form may be a part): as the sequence (O75874 whole entry, the tested form may be a part) above, with R132S counted along it
Procedure: as §3, §4, §5

[10] = molecular target: T4, IDH1 R132H (Homo sapiens, UniProt O75874, R132H); assay: Inhibition of oxidative decarboxylation of isocitrate to α-KG by IDH1 R132H; type: biochemical
T4 construct: The resultant fragments for IDH1 (full length) and IDH2 (residues 40-452) were cloned into vector pET41a; made in house; host or cells: E. coli
T4 sequence (O75874 whole entry R132H, the tested form may be a part): as the sequence (O75874 whole entry, the tested form may be a part) above, with R132H counted along it
Procedure: as §3, §4, §5

[11] = Recombinant IDH1 enzyme assays (stopped-flow, 340 nm); type: biochemical, human; details: NADP+-dependent oxidative decarboxylation of isocitrate, vs wild-type
Procedure: 293T and the human glioblastoma cell lines U87MG and LN-18 were cultured in DMEM, 10% fetal bovine serum. Cells were transfected and selected using standard techniques. Protein expression levels were determined by Western blot analysis using IDHc antibody (Santa Cruz Biotechnology), IDH1 antibody (proteintech), MYC tag antibody (Cell Signaling Technology), and IDH2 antibody (Abcam). Metabolites were extracted from cultured cells and from tissue samples according to close variants of a previously reported method (Lu, W., Kimball, E. & Rabinowitz, J. D. J Am Soc Mass Spectrom 17, 37-50 (2006)), using 80% aqueous methanol (−80° C.) and either tissue scraping or homogenization to disrupt cells. […] For enzyme assays using recombinant IDH1 enzyme, proteins were produced in E. coli and purified using Ni affinity chromatography followed by Sephacryl S-200 size-exclusion chromatography. […] Chirality of 2HG was determined as described previously (Struys, E. A., Jansen, E. E., Verhoeven, N. M. & Jakobs, C. Clin Chem 50, 1391-5 (2004)). […] The IDH1 mutation status of each sample was determined using standard molecular biology techniques as described previously (Yan, H. et al. N Engl J Med 360, 765-73 (2009)). Metabolites were extracted and analyzed by LC-MS/MS as described above. […]

[12] = molecular target: LDHa (Homo sapiens, UniProt P00338); assay: LDHa IC50 (Table 24a); type: biochemical
[13] = molecular target: LDHb (Homo sapiens, UniProt P07195); assay: LDHb IC50 (Table 24a); type: biochemical
LDHb, sequence (P07195 whole entry, species assumed): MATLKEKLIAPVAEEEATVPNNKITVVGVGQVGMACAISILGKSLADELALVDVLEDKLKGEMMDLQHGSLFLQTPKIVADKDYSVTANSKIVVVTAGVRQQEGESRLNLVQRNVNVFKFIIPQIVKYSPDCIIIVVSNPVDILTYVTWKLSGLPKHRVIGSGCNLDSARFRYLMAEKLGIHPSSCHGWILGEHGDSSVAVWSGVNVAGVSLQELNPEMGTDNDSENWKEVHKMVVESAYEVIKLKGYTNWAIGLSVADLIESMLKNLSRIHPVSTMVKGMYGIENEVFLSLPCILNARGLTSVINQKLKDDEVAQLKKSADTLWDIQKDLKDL

[14] = molecular target: T4, IDH1 R132H; assay: High throughput screening for IDH1 R132H inhibitors (NADPH/αKG, resazurin detection); type: biochemical; details: for IC50 Ratio (40/4): ratio of ICDH IC50 at 40 uM vs 4 uM NADPH
Procedure: Assays were conducted in a volume of 76 ul assay buffer (150 mM NaCl, 10 mM MgCl2, 20 mM Tris pH 7.5, 0.03% bovine serum albumin) as follows in a standard 384-well plate: To 25 ul of substrate mix (8 uM NADPH, 2 mM αKG), 1 ul of test compound was added in DMSO. […] The reaction was incubated for 50 minutes at room temperature, then 25 ul of detection mix (30 uM resazurin, […]) was added and the mixture further incubated for 5 minutes at room temperature. The conversion of resazurin to resorufin was detected by fluorescent spectroscopy at Ex544 Em590 c/o 590.
as §2

[15] = NADH 0.5 mM, alpha-Ketoglutarate 5 mM

Compound: Cn1nnc2c(C(N)=O)ncn2c1=O [temozolomide]
tolerability [1]: well tolerated

Compound: R132C
kcat ([2]; WT value estimated (est.)): 550 s⁻¹
Km ([2]; n/a indicates no measureable activity): 0.3 µM
Ki [3]: 61 µM
kcat [3]: 710 s⁻¹
Km [3]: 87000 µM

Compound: R132H: recombinant IDH1 Arg132His mutant with C-terminal His8 tag expressed in E. coli
consumption of NADH in the presence of alpha-ketoglutarate [7, 15]: no measurable consumption of NADH
decrease in catalytic turnover [11]: 1000 fold

Compound: Cc1ccc(C2=NN(c3ccccc3)C(c3cn(CCC(=O)O)nc3-c3ccccc3)C2)cc1 (stereo not shown) [drawing 31]
IC50 [12]: 5.92 µM
IDH1wt IC50 @ 1x Km (uM) ([4]; 1x Km of NADPH): NO inhibition
IC50 [13]: 17.4 µM
IC50 Ratio (40/4) [14]: 3.38

Compound: O=C1NC(=S)S/C1=C\c1cccc(OC(=O)c2cccc(F)c2)c1
IC50 [12]: 8.61 µM
IC50 [13]: > 100 µM
IC50 Ratio (40/4) [14]: 1.15

Compound: O=C(O)CCC(=O)C(=O)O [α-KG, α-ketoglutarate]
Ki [8]: 612 µM
Ki [9]: 45.3 µM
Ki [10]: 28.6 µM

Compound: O=C(O)CCC(O)C(=O)O (stereo not shown) [reaction product 2-HG, 2-hydroxyglutarate]
effect on the oxidative decarboxylation of isocitrate by wild-type ICDH1 [8]: inhibit

Compound: O=C(O)CC[C@@H](O)C(=O)O [(R)-2-hydroxyglutarate]
effect on the oxidative decarboxylation of isocitrate by wild-type ICDH1 [8]: did not show any effect

Compound: Cc1c(/C=C2\Sc3ccccc3C2=O)c(O)n2c(nc3ccccc32)c1C#N
IC50 [12]: 25.4 µM
IC50 [13]: 64.1 µM
IC50 Ratio (40/4) [14]: 17.42

The next lines start with results.

inhibition of IDH1 wt ([4]; even at 100 uM, 1× Km of NADPH): no inhibition
Compound: Cc1ccc(C2=NN(c3ccccc3)C(c3cn(CCC(=O)O)nc3-c3ccccc3)C2)cc1 (stereo not shown) [second example]

Hill Constant ([5]; isocitrate, fit to Hill equation): 0.479
consumption of NADPH in reduction of α-KG [6]: reduced α-KG and consumed NADPH
Ki ([6]; uncompetitive substrate inhibition by α-KG): 24600 µM
Hill Constant ([6]; α-KG): 0.479
Compound: R132S: recombinant IDH1 Arg132Ser mutant with C-terminal His8 tag expressed in E. coli
increase in Km ([5]; Km for isocitrate compared to wild-type): 20,000 fold
Vmax ([5]; isocitrate varied, cofactor 500 uM): 95 µmol/min/mg
Vmax ([6]; α-KG varied, NADPH 500 uM, pH 6.5): 2.7 µmol/min/mg
consumption of NADH in the presence of alpha-ketoglutarate [7, 15]: demonstrated the ability to utilize NADH
Umol/min/mg ([7]; consumption of NADH, individual determinations): 0.7183 Umol/min/mg and 0.6997 Umol/min/mg
Rate (ΔA/sec) ([7]; consumption of NADH, individual determinations, NADH 0.5 mM, alpha-Ketoglutarate 5 mM): 0.001117 ΔA/sec and 0.001088 ΔA/sec
Rate (ΔA/sec) Mean ([7]; consumption of NADH, mean): 0.001103 ΔA/sec
Umol/min/mg Mean ([7]; consumption of NADH, mean): 0.709 Umol/min/mg

Ki ([8]; IDH1 wt 1.5 ug/ml, competitive with isocitrate, NADP 0.5 mM, read-out: Oxalomalate Ki): 955 µM
Ki ([9]; IDH1R132S 30 ug/ml, competitive with isocitrate, NADP 0.5 mM, read-out: Oxalomalate Ki): 510 µM
Ki ([10]; IDH1R132H 60 ug/ml, competitive with isocitrate, NADP 0.5 mM, read-out: Oxalomalate Ki): 951 µM
susceptibility to inhibition by oxalomalate ([10]; R132H mutation compared with wt): essentially unaffected
Compound: O=C(O)C(=O)C(C(=O)O)C(O)C(=O)O (stereo not shown) [Oxalomalate, oxalomalate]
susceptibility to inhibition by oxalomalate ([9]; R132S mutation compared with wt): approximately a two-fold increase in susceptibility

Ki [3]: 610 µM
consumption of NADPH in reduction of α-KG [6]: unable to consume NADPH
Compound: Wt: recombinant wild type IDH1 with C-terminal His8 tag expressed in E. coli
kcat(s^−1) ([2]; WT value estimated (est.)): ~7 (est.) s^−1
kcat [3]: 130000 s⁻¹
Km [3]: 57 µM
consumption of NADH in the presence of alpha-ketoglutarate [7, 15]: no measurable consumption of NADH

IC50 [12]: 12.8 µM
IC50 [13]: > 100 µM
IC50 Ratio (40/4) [14]: 1.39
Compound: O=C1NC(=S)S/C1=C/c1cccc(OCc2ccc([N+](=O)[O-])cc2)c1

IC50 when assayed at 100×Km ([14]; IDH1R132H at 100× Km of NADPH): shifted significantly
IC50 ([14]; IDH1R132H, presumably at 10× Km of NADPH): 5.74 µM
Compound: Cc1c(C=C2Sc3ccccc3C2=O)c(O)n2c(nc3ccccc32)c1C#N [first example]

IC50 [12]: 33.8 µM
IC50 [13]: > 100 µM
IC50 Ratio (40/4) [14]: 1.28
Compound: Cc1cc(C(=O)O)ccc1-c1ccc(/C=C2/NC(=O)N(Cc3ccc(Br)cc3)C2=O)o1
